According to patent US20040023984A1, “Compounds for the treatment of alzheimer's disease” (priority 1987, published 2004):
“And” between values parts separate entries of the source, which are not always exact repeats. Equal entries are not always repeated. Where two headings read alike, the source gives them in different places.

Assays:
acetylcholinesterase [1] = target: T1, acetylcholinesterase (Homo sapiens, UniProt P22303); assay: Acetylcholinesterase Inhibition Assay (other cholinesterase activity tests, may be less reliable); type: biochemical; conditions: results may be less reliable
acetylcholinesterase [2] = target: T1, acetylcholinesterase; assay: Inhibition of acetylcholinesterase, procedure of Ellman (acetylthiocholine substrate, photometric); type: biochemical; conditions: for inhibition at 1 µM: read-out: inhibition of acetylcholinesterase at concentration 10^−6 molar; for inhibition at 0.001 µM: read-out: inhibition of acetylcholinesterase at concentration 10^−9 molar; for cholinesterase inhibition at 10^−5 M: further compounds
Procedure: The anticholinesterase activity of the compounds prepared in the above examples was assayed by an assay for inhibition of acetylcholinesterase following the procedure of G. Ellman, […], 7:88-95 (1961) Acetylthiocholine serves as substrate since it acts like acetylcholine. Acetylcholinesterase cleaves it to thiocholine and acetate which react with dithiobisnitrobenzoate to form a yellow color which is measured photometrically.
This assay was carried out at dilution of 10^−5 molar
The compounds were tested in the assay described after Example 5 but at different concentrations. The results obtained were as follows:
Further compounds were prepared by methods analogous to those described above and were tested in a cholinesterase assay as described above.

cholinesterase = conditions: Irwin and Smith, Arch. Int. Pharmacodyn. 127:314-330; cited from earlier work
[3] = tested on: scopolamine induced memory deficit; assay: Scopolamine dementia dark avoidance test (passive avoidance); type: in vivo, male CFW mice
Procedure: Furnished data on the effects of these compound on cholinesterase activity were used to determine doses for testing. […] The two other compounds were tested at 1,3 and 10 mg/kg sc and did antagonize the scopolamine induced deficit.
Training and testing of passive avoidance were conducted in a two-compartment (light/dark) test cage. On the training day, mice were individually placed in the light half of the cage and after entering the dark compartment, were administered a 3 sec 0.4 mA footshock. They were then removed from the test chamber and returned to their home cages. Twenty-four hours later, the animals were again placed in the lighted half of the test cage and the latency to enter the dark compartment was measured.
All animals in each group of 15 naive male CFW mice were injected twice subcutaneously. Thirty minutes prior to training, animals were administered 3 mg/kg scopolamine HBr or its 0.9% NaCl vehicle. Five minutes prior to training, independent groups were administered one of three doses of the test compounds or the distilled water vehicle. One group in each experiment received vehicle twice, another group received scopolamine and the dH2O vehicle; the remaining groups received scopolamine and a test compound.
A cutoff value (CO), defined as the second-longest latency in the scopolamine/vehicle treated group, was used to determine whether a compound was active. If 20% or more of the animals in a treatment group had latencies greater than the CO value, the compound was considered active at that dose.
The three compounds were tested in two separate experiments; the results are presented below in Tables 1 and 2. Doses considered active are marked with an asterisk (*).

[4] = Solubility noted on isolation of the product; type: physicochemical
acetylcholinesterase [5] = target: T1, acetylcholinesterase; assay: biochemical
mice = assay: Profile of Observable Effects (POE), peripheral cholinergic effects; conditions: subcutaneous
Procedure: A number of compounds were also evaluated in a standardized Profile of Observable Effects (POE) which involves administering drug to animal in increasing amounts and observing this for up to two hours to see whether peripheral cholinergic effects such as tremor, lacrimation, salivation, pilo erection, defection or red eye occur.

[6] = tested on: nucleas basalis-lesioned animals; assay: Nucleus basalis model, passive avoidance in shuttle box; type: in vivo, mice; conditions: nucleus basalis model, mice, drug given three and ½ hours before learning trials
Excerpt: The following test provides a good animal model for Alzheimer's disease in humans: A selective lesion is placed in a subcortical nucleus (nucleus basalis of Meynert) with a resultant cortical cholinergic deficiency, similar in magnitude to that seen in early to moderate stage Alzheimer's disease. Numerous behavioral deficits, including the inability to learn and retain new information, characterizes this lesion. Drugs that can normalize these abnormalities would have a reasonable expectation of efficacy in Alzheimer's disease. Haroutunian, V, Kanof P, Davis, K L: Pharmacological alleviations of cholinergic-lesion-induced memory defects in rats. Life Sciences, 37:945-952 (1985).
Galanthamine n-butyl carbamate was tested in the nucleus basalis model for galanthamine discussed in the Hartounian et al paper noted above. In the test, mice were given the drug three and ½ hours before two learning trials in a shuttle box. They are placed in the lighted compartment and receive an electric footshock when they cross into the preferred side, the dark. The next day, they are again placed in the lighted compartment and the time to enter the dark is noted. The latency to enter the dark compartment is the basis for this figure. […] Below 50 mg/kg no side effects were noted.

[7] = 10^−5 molar, read-out: inhibition of acetylcholinesterase at concentration 10^−5
[8] = dilution of 10^−5 molar, read-out: PERCENT INHIBITION OF ACETYLCHOLINESTERASE
[9] = Table 2, scopolamine + 1 mg/kg sc, cut-off 41 seconds
[10] = Table 2, scopolamine + 3 mg/kg sc, cut-off 41 seconds
[11] = Table 2, scopolamine + 10 mg/kg sc, cut-off 41 seconds
[12] = Table 1, scopolamine + 0.3 mg/kg sc, cut-off 38 seconds
[13] = Table 1, scopolamine + 2.0 mg/kg sc, cut-off 38 seconds
[14] = Table 1, scopolamine + 3.0 mg/kg sc, cut-off 38 seconds

T1 sequence (P22303 32-614, species assumed): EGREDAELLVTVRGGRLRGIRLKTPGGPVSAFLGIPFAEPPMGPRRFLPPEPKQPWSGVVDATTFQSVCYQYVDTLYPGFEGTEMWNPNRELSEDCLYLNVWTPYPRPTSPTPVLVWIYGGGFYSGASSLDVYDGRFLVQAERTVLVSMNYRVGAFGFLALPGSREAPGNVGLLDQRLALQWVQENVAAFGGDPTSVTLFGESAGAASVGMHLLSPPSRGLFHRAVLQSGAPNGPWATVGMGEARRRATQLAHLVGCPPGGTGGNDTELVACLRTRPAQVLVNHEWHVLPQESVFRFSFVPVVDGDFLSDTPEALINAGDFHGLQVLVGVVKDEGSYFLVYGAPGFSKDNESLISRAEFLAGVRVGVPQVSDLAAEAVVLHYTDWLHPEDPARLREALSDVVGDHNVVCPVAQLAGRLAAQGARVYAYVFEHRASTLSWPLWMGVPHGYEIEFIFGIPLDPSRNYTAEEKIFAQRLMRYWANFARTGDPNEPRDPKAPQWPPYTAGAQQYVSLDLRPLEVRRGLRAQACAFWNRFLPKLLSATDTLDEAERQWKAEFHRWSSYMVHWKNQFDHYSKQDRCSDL

CCCCC(=O)O[C@H]1C=C[C@@]23CCN(C)Cc4ccc(OC)c(c42)O[C@H]3C1 [valeric ester]
% Inhibition at 10^−6 (acetylcholinesterase [1]): 35%
% Inhibition at 10^−7 (acetylcholinesterase [1]): 37%
% Inhibition at −10^−5 (acetylcholinesterase [1]): 41%

CN1CC[C@@]23C=C[C@H](O)CC2Oc2c(O)ccc(c23)C1 (stereo partly shown) [O-demethyl-galanthamine, O-demethyl galanthamine]
inhibition at 10 µM (acetylcholinesterase [2]; [7]): ≥ 100%
inhibition at 1 µM (acetylcholinesterase [2]): 89%
inhibition at 0.001 µM (acetylcholinesterase [2]): 55%

COc1ccc2c3c1OC1CC(OC(C)=O)CCC31CC[N+](C)(C)C2.[I-] (stereo not shown) [lycoramine acetate methiodide]
cholinesterase activity (cholinesterase): ineffective

COc1ccc2c3c1O[C@H]1C[C@@H](OC(C)=O)C=C[C@@]31CCN(C)C2 [Product of Example 2, Galanthamine acetate]
inhibition at 10 µM (acetylcholinesterase [2]; [8]): 37%
# > CO/n [3, 9]: 1/15
% > CO [3, 9]: 7%
Mean Latency [3, 9]: 21 s
# > CO/n [3, 10]: 4/15
Mean Latency [3, 10]: 38 s
% > CO ([3]; Table 2, scopolamine + 3 mg/kg sc, cut-off 41 seconds, * = dose considered active): 27* %
# > CO/n [3, 11]: 3/15
Mean Latency [3, 11]: 31 s
% > CO ([3]; Table 2, scopolamine + 10 mg/kg sc, cut-off 41 seconds, * = dose considered active): 20* %
antagonism of scopolamine induced memory deficit ([3]; doses of 3 and 10 mg/kg sc): active

CCNC(=O)O[C@H]1C=C[C@@]23CCN(C)Cc4ccc(OC)c(c42)O[C@H]3C1 [ethyl carbaxnate]
% Inhibition at 10^−6 (acetylcholinesterase [1]): 70%
% Inhibition at 10^−7 (acetylcholinesterase [1]): 9%
% Inhibition at −10^−5 (acetylcholinesterase [1]): 59%

COc1ccc2c3c1O[C@H]1C[C@@H](OC(=O)c4ccccc4F)C=C[C@@]31CCN(C)C2 [o-F-benzoic ester]
% Inhibition at 10^−6 (acetylcholinesterase [1]): 39%
% Inhibition at 10^−7 (acetylcholinesterase [1]): 37%
% Inhibition at −10^−5 (acetylcholinesterase [1]): 27%

CCCCCCCCOC(N)=O [octyl carbamate]
% Inhibition at 10^−6 (acetylcholinesterase [1]): 35%
% Inhibition at 10^−7 (acetylcholinesterase [1]): 16%
% Inhibition at −10^−5 (acetylcholinesterase [1]): 55%

COc1ccc2c3c1OC1C(O)CC=C4C(C2)[N+](C)(C)CCC431.[I-] (stereo not shown) [neopin methiodide]
cholinesterase activity (cholinesterase): ineffective

CCCCCC(=O)O[C@H]1C=C[C@@]23CCN(C)Cc4ccc(OC)c(c42)O[C@H]3C1 [hexanoic ester]
% Inhibition at 10^−6 (acetylcholinesterase [1]): 30%
% Inhibition at 10^−7 (acetylcholinesterase [1]): 36%
% Inhibition at −10^−5 (acetylcholinesterase [1]): 55%

COc1cc2c3c(c1)OC1C[C@@H](O)C=C[C@@]31CC[N+](C)(Cc1ccccc1)C2.[Br-] (stereo partly shown) [galanthamine benzyl bromide]
inhibition at 1 µM (acetylcholinesterase [2]): 77%
inhibition at 0.001 µM (acetylcholinesterase [2]): 40%
solubility in alcohols [4]: soluble

deoxydemethyl lycoramine methiodide
cholinesterase activity (cholinesterase): good activity

COc1ccc2c3c1OC1C[C@H](Cl)C=C[C@@]31CCN(C)C2 (stereo partly shown) [Product of Example 10]
inhibition at 10 µM (acetylcholinesterase [2]; [7]): 73%

COc1ccc2c3c1O[C@H]1C[C@@H](OC(=O)CC(C)C)C=C[C@@]31CCN(C)C2 [iso-valeroyl ester]
% Inhibition at 10^−6 (acetylcholinesterase [1]): 39%
% Inhibition at 10^−7 (acetylcholinesterase [1]): 13%
% Inhibition at −10^−5 (acetylcholinesterase [1]): 33%

CCCOC(N)=O [n-propyl carbamate]
% Inhibition at 10^−6 (acetylcholinesterase [1]): 50%
% Inhibition at 10^−7 (acetylcholinesterase [1]): 21%
% Inhibition at −10^−5 (acetylcholinesterase [1]): 34%

lycoramine azide
cholinesterase inhibition at 10^−5 M (acetylcholinesterase [2]): 25

4,5-dehydrogalanthamine
cholinesterase inhibition at 10^−5 M (acetylcholinesterase [2]): 30

CNC(=O)Oc1ccc2c3c1OC1CC(O)C=CC31CCN(C)C2 (stereo not shown) [O-demethyl-galanthamine-13-methyl carbamate]
IC50 (acetylcholinesterase [5]; IC50, acetyl cholinesterase inhibition, S 0.3 mM): 2 nM
IC50 (acetylcholinesterase [5]; IC50, acetyl cholinesterase inhibition, S 5 mM): 2 nM
POE, mice showing peripheral cholinergic effects (mice; 0.31 mg/kg): not noted in any of four mice
POE, mice showing peripheral cholinergic effects (mice; 0.63 mg/kg): noticeable in one mouse out of four
POE, mice showing peripheral cholinergic effects (mice; 1 mg/kg): in all four mice

COc1ccc2c3c1O[C@H]1C[C@@H](O)CC[C@@]31CCN(C)C2 [Product of Example 5]
inhibition at 10 µM (acetylcholinesterase [2]; [8]): 30%

COc1ccc2c3c1OC1CC(O)CCC31CCNC2 (stereo not shown) [N-demethyl lycoramine]
inhibition of acetylcholinesterase at concentration 10^−5 (acetylcholinesterase [2]; 10^−5 molar): inactive

COc1ccc2c3c1O[C@H]1C[C@@H](O[Si](C(C)C)(C(C)C)C(C)C)C=C[C@@]31CCN(C)C2 [Product of Example 7]
inhibition of acetylcholinesterase at concentration 10^−5 (acetylcholinesterase [2]; 10^−5 molar): 17
solubility in alcohols [4]: soluble

COc1ccc2c3c1O[C@H]1C[C@H](OC(C)=O)C=C[C@@]31CCN(C)C2 [epigalanthamine acetate (from Example 8), epigalanthamine acetate]
inhibition at 10 µM (acetylcholinesterase [2]; [7]): 21%
solubility in alcohols [4]: soluble

COc1ccc2c3c1O[C@H]1C[C@@H](OC(=O)C4CC4)C=C[C@@]31CCN(C)C2 [cyclopropyl carbinol ester]
% Inhibition at 10^−6 (acetylcholinesterase [1]): 13%
% Inhibition at 10^−7 (acetylcholinesterase [1]): 0%
% Inhibition at −10^−5 (acetylcholinesterase [1]): 40%

CC(C)OC(N)=O [isopropyl carbamate]
% Inhibition at 10^−6 (acetylcholinesterase [1]): 0%
% Inhibition at 10^−7 (acetylcholinesterase [1]): 0%
% Inhibition at −10^−5 (acetylcholinesterase [1]): 21%

COc1ccc2c3c1O[C@H]1CC(O)C=C[C@@]31CCN(C)C2 (stereo partly shown) [Galanthamine, reference compound]
best dose in passive avoidance test [6]: 3 mg/kg

COc1ccc2c3c1OC1CCCC[C@@]31CCN(C)C2 (stereo partly shown) [deoxylycoramine]
cholinesterase activity (cholinesterase): some activity

COc1ccc2c3c1OC1CC(N)CCC31CCN(C)C2 (stereo not shown) [2-amino-2-dehydroxy lycoramine]
cholinesterase inhibition at 10^−5 M (acetylcholinesterase [2]): 17

COc1ccc2c3c1OC1CC(O)C=C[C@@]31CCNC2 (single isomer, unassigned; (-)) [N-demethyl galanthamine, (−) N-demethylgalanthamine]
# > CO/n [3, 12]: 0/15
% > CO [3, 12]: 0%
Mean Latency [3, 12]: 21 s
# > CO/n [3, 13]: 2/15
% > CO [3, 13]: 13%
Mean Latency [3, 13]: 33 s
# > CO/n [3, 14]: 2/15
% > CO [3, 14]: 13%
Mean Latency [3, 14]: 26 s
antagonism of scopolamine induced memory deficit ([3]; doses of 0.3, 1.0 and 3.0 mg/kg): inactive

COc1ccc2c3c1OC1CC(OC(=O)Nc4cccc5ccccc45)C=CC31CCN(C)C2 (stereo not shown) [Product of Example 4]
PERCENT INHIBITION OF ACETYLCHOLINESTERASE (acetylcholinesterase [2]; dilution of 10^−5 molar): 60%

COc1ccc2c3c1O[C@H]1C[C@@H](OC(=O)Nc4ccccc4)C=C[C@@]31CCN(C)C2 [Product of Example 3]
inhibition at 10 µM (acetylcholinesterase [2]; [8]): 37%

COc1ccc2c3c1O[C@H]1C[C@@H](O)C=CC31CC[N+](C)(C)C2.[I-] (stereo partly shown) [galanthamine methiodide]
solubility in cold water ([4]; cold water): slightly soluble
solubility in hot water ([4]; hot water): soluble

COC1C=C[C@@]23CCN(C)Cc4ccc(O)c(c42)OC3C1 (stereo partly shown) [childanthine]
IC50 (acetylcholinesterase [5]; read-out: IC50, acetyl cholinesterase inhibition): 310 nM and 80 nM

COc1cc2c3c(c1)OC1C/C(=N/NC(N)=O)C=C[C@@]31CCN(C)C2 (stereo partly shown) [narwedine semicarbazone]
inhibition of acetylcholinesterase at concentration 10^−5 (acetylcholinesterase [2]; 10^−5 molar): inactive
solubility in alcohols [4]: soluble

COc1ccc2c3c1OC1CC(I)CCC31CCN(C)C2 (stereo not shown) [2-iodo-2-dehydroxy lycoramine]
cholinesterase inhibition at 10^−5 M (acetylcholinesterase [2]): 15
